Assay results as given in patent US20180036302A1, “TREATMENT OF MULTIPLE SCLEROSIS WITH COMBINATION OF LAQUINIMOD AND A STATIN” (Teva Pharmaceutical Industries Ltd., priority 2014, published 2018).

How the values were obtained:
[1] = tested on: MOG induced chronic Experimental Autoimmune Encephalomyelitis (EAE) model; experiment: MOG induced chronic EAE in C57Bl/6 mice; assay type: in vivo; conditions: for % inhibition 1 (incidence) / % inhibition 2 (MMS) / % inhibition 3 (GMS): vs vehicle
in vivo = conditions: male, C57BL/6, mouse, po, 5 mg/kg
Protocol: For all PO administration groups: 1% MC in water (all PO formulations were made just prior to use).
Fasted overnight and fed 4 hr post dose, free access to water
• 1. For plasma samples: An aliquot of 30 μL plasma sample was added with 150 μL ACN which contains IS (Dexamethasane 40 ng/mL, 5 ng/mL) for protein precipitation. The mixture was vortexed for 2 rain and centrifuged at 12000 rpm for 5 min. The 2 μL supernatant was injected into LC-MS/MS. • 2. For diluted plasma samples: An aliquot of 10 μL plasma sample was added with 90 μL blank plasma to obtain the diluted plasma samples, and the sample dilution factor is 10. An aliquot of 10 μL 10-folder-diluted plasma sample was added with 40 μL blank plasma to obtain the diluted plasma samples, and the sample dilution factor is 50. The exaction procedure for diluted samples was same as those for non-diluted samples.
The animals were restrained manually at the designated time points. Approx. 150 μL of blood samples were taken from the animals into K2EDTA tubes via retro-orbital puncture or cardiac puncture for terminal bleeding under anesthesia with Isoflurane. Blood sample was put on ice and centrifuged at 2000 g for 5 min (4° C.) to obtain plasma sample within 15 minutes. Plasma samples were snap frozen by placing into dry-ice.
The plasma samples were stored at approximately −70° C. until analysis. The backup samples are discarded after two months unless specified. The unused dosing solutions are discarded within 1 week after completion of the study.

[2] = in vivo; cited from earlier work
Multiple Sclerosis = conditions: two phase III trials; cited from earlier work
[3] = Atorvastatin 10 mg/kg BID gavage, Day 1-30
[4] = Atorvastatin 50 mg/kg BID gavage, Day 1-30
[5] = Laquinimod 5 mg/kg/day gavage, Day 1-30
[6] = Laquinimod 25 mg/kg/day gavage, Day 1-30

With CC(C)c1c(C(=O)Nc2ccccc2)c(-c2ccccc2)c(-c2ccc(F)cc2)n1CC[C@@H](O)C[C@@H](O)CC(=O)O [Atorvastatin, atorvastatin] the “Duration” value [1, 3] was 18.1 ± 2.1 days, the GMS value [1, 3] was 2.5 ± 0.6 and the Incidence [1, 3] was 15/15. For the same compound, the MMS value [1, 3] was 3.6 ± 0.5, the “Onset” value [1, 3] was 12.4 ± 1.2 days and the “% inhibition 1 (incidence)” value [1, 3] was 0%. The “% inhibition 2 (MMS)” value [1, 3] was 2.7%, the “% inhibition 3 (GMS)” value [1, 3] was 7.4% and the “Duration” value [1, 4] was 17.2 ± 4.9 days. For the same compound, the GMS value [1, 4] was 2.3 ± 0.7, the Incidence [1, 4] was 14/15 and the MMS value [1, 4] was 3.3 ± 1.0. For the same compound, the “Onset” value [1, 4] was 13.8 ± 4.9 days, the “% inhibition 1 (incidence)” value [1, 4] was 6.7% and the “% inhibition 2 (MMS)” value [1, 4] was 10.8%. The “% inhibition 3 (GMS)” value [1, 4] was 14.8% and the Mortality ([1]; mouse, in vivo) was 0/15.
CCN(C(=O)c1c(O)c2c(Cl)cccc2n(C)c1=O)c1ccccc1 [Laquinimod] gave an AUCINF (in vivo) of 71465 ng·h/mL, an AUClast (in vivo) of 71302 ng·h/mL and an AUC(0-inf) (in vivo; AUCINF) of 86900 ng·h/mL. It also gave an AUC(0-t) (in vivo; AUClast) of 86700 ng·h/mL, a Cmax (in vivo; Cmax) of 31100 ng/mL and a half-life (in vivo; Terminal t1/2) of 3.01 h. For the same compound, the Tmax (in vivo; Tmax) was 0.5 h, the oral bioavailability [2] was “high oral bioavailability” and the “Duration” value [1, 5] was 13.5 ± 7.9 days. The GMS value [1, 5] was 1.4 ± 1.0, the Incidence [1, 5] was 12/15 and the MMS value [1, 5] was 2.3 ± 1.3. For the same compound, the Mortality [1, 5] was 0/15, the “Onset” value [1, 5] was 16.3 ± 7.7 days and the “% inhibition 1 (incidence)” value [1, 5] was 20%. The “% inhibition 2 (MMS)” value [1, 5] was 37.8%, the “% inhibition 3 (GMS)” value [1, 5] was 48.1% and the “Duration” value [1, 6] was 4.1 ± 6.0 days. The GMS value [1, 6] was 0.3 ± 0.6, the Incidence [1, 6] was 5/15 and the MMS value [1, 6] was 0.7 ± 1.0. For the same compound, the Mortality [1, 6] was 0/15, the “Onset” value [1, 6] was 25.63 ± 7.5 days and the “% inhibition 1 (incidence)” value [1, 6] was 66.7%. For the same compound, the “% inhibition 2 (MMS)” value [1, 6] was 81.1%, the “% inhibition 3 (GMS)” value [1, 6] was 91.9% and the “safety and tolerability profile” value (Multiple Sclerosis) was “favorable safety and tolerability profile”.
